Read-outs that look alike come from different tables or passages of the source.
Assays:
[1] = tested on: HIV-2ROD; experiment: Anti-HIV-2 activity in CEM cells; assay type: cell-based; details: HIV-2ROD-infected CEM cells; data not shown
[2] = Viability assay in MT-4 cell cultures; assay type: cell-based, human; details: human, MT-4 cells
[3] = in vitro; assay type: cell-based, human; details: human
[4] = tested on: HIV-1; experiment: Anti-HIV-1 activity in CEM cell cultures; assay type: cell-based; details: for EC50: read-out: EC50 (CEM), effective concentration that inhibits 50% of HIV-1 replication, CEM cells
[5] = tested on: HSV-2 (G); experiment: HSV-2 replication in HIV-1/HSV-2 coinfected tonsillar tissue; assay type: cell-based; details: 1μM, n=5
[6] = tested on: HIV-1 US 3, R5 (clade B); experiment: p24 production in virus-infected PBMC, HIV-1 US 3; assay type: cell-based; details: read-out: EC50, US 3
[7] = tested on: HIV-1 BaL (R5); experiment: p24 production in virus-infected PBMC, HIV-1 BaL; assay type: cell-based; details: read-out: EC50, BaL
[8] = tested on: PBMC; experiment: PBMC MTS viability staining; assay type: cell-based, human
[9] = tested on: HIV-1LAI.04; experiment: Anti-HIV-1 activity in MT-4 cell cultures; assay type: cell-based; details: MT-4 cells; for EC50: read-out: EC50 (MT-4), effective concentration that inhibits 50% of HIV-1 replication
[10] = tested on: HIV-1 UG 270, X4 (clade D); experiment: p24 production in virus-infected PBMC, HIV-1 UG 270; assay type: cell-based; details: read-out: EC50, UG 270
[11] = tested on: HIV-1 ID12, R5 (clade A/E); experiment: p24 production in virus-infected PBMC, HIV-1 ID12; assay type: cell-based; details: read-out: EC50, ID12
[12] = tested on: HSV-2 strain G; experiment: HSV-2 replication in human tonsillar tissue; assay type: cell-based; details: 1μM, day 12 post infection, n=4
[13] = tested on: HIV-1 NL4.3 (X4); experiment: p24 production in virus-infected PBMC, HIV-1 NL4.3; assay type: cell-based; details: read-out: EC50, NL4.3
[14] = tested on: HIV-1LAI.04; experiment: HIV-1 replication in HIV-1/HSV-2 coinfected tonsillar tissue; assay type: cell-based; details: 1μM, n=5
[15] = tested on: clinical ACV-resistant HSV-2 isolate; experiment: ACV-resistant HSV-2 replication in human tonsillar tissue; assay type: cell-based; details: variant without functional thymidine kinase, n=2
[16] = tested on: MT-4 cells; experiment: MT-4 cell growth / proliferation; assay type: cell-based, human; details: read-out: IC50 (MT-4), concentration that inhibit cell growth by 50%
[17] = tested on: CEM cells; experiment: CEM cell growth; assay type: cell-based, human; details: read-out: IC50 (CEM), concentration that inhibit cell growth by 50%
[18] = tested on: CEM cells; experiment: in vitro; assay type: cell-based, human
[19] = tested on: HIV-1 ETH 2220, R5 (clade C); experiment: p24 production in virus-infected PBMC, HIV-1 ETH 2220; assay type: cell-based; details: read-out: EC50, ETH 2220
[20] = tested on: HIV-1 UG275, R5 (clade A); experiment: p24 production in virus-infected PBMC, HIV-1 UG275; assay type: cell-based; details: read-out: EC50, UG275
[21] = tested on: HIV-1BaL; experiment: HIV-1 replication in human cervicovaginal tissue ex vivo; assay type: cell-based
[22] = tested on: HIV-1LAI.04; experiment: HIV-1 replication in human tonsillar tissue ex vivo; assay type: cell-based
[23] = tested on: HIV-1LAI.04; experiment: Flow-cytometry of HIV-infected; assay type: cell-based; details: tonsillar tissue, day 12 post infection; control 11.71 ± 3.87%; n=4
[24] = tested on: MT-4 cells; experiment: Viability assay in MT-4 cell cultures; assay type: cell-based, human
[25] = tested on: human tonsillar tissue T cells; assay type: cell-based

| SMILES | EC50 [6] | EC50 [7] | SI, selective index or ratio of CC50 (MT-4)/EC50 [9] | EC50 [9] | EC50 [10] | EC50 [11] | EC50 [13] | IC50 [16] | IC50 [17] | CC50 [18] | EC50 [19] | EC50 [4] | EC50 [20] | CC50 [24] | also measured |
| --- | --- | --- | --- | --- | --- | --- | --- | --- | --- | --- | --- | --- | --- | --- | --- |
| Nc1nc2c(ncn2COCCO)c(=O)[nH]1 [ACV, acyclovir, reference compound] |  |  |  |  |  |  |  |  |  |  |  |  |  |  | suppression of viral replication [1]: did not efficiently suppress viral replication; CC50 [2]: > 150 µM; CC50 [3]: > 150 µM; suppression of viral replication ([4]; HIV-1IIIB-infected CEM cells, data not shown): did not efficiently suppress viral replication |
| C[C@H](NP(=O)(OCCOCn1cnc2c(=O)[nH]c(N)nc21)Oc1ccccc1)C(=O)OCc1ccccc1 (stereo partly shown) [Cf2648] | 28 ± 12 µM | 6.6 ± 1.4 µM | > 26 | 5.7 ± 1.6 µM | 55 ± 40 µM | 16 ± 15 µM | 13 ± 3.8 µM | 34 ± 11 µM | 33 ± 7.1 µM | > 150 µM | 19 ± 14 µM | 6.4 ± 5.8 µM | 25 ± 10 µM |  | inhibition of HSV-2 replication in HIV-1/HSV-2 coinfected lymphoid tissue [5]: 99.6 ± 0.2%; CC50 ([8]; read-out: CC50, 50% cytostatic concentration, PBMC, MTS viability staining method): 319 µM; suppression of HSV-2 replication [12]: 99.6 ± 0.3%; inhibition of HIV replication in HIV-1/HSV-2 coinfected lymphoid tissue [14]: 81.1 ± 5.9%; inhibition of replication of ACV-resistant HSV-2 variant [15]: 94.9 ± 5.1%; inhibition of HIV-1 replication, drug removed on day 3 post-infection ([21]; cervicovaginal tissue, 1μM, not replenished, n=4): 57.1 ± 16.0%; inhibition of HIV replication, drug replenished at each medium change ([21]; cervicovaginal tissue, 1μM, treated overnight then infected with HIV-1BaL, n=2): 100%; inhibition of HIV replication on day 12 post-infection, 3-day incubation followed by drug removal ([21]; cervicovaginal tissue, 5μM, n=3): 90.3 ± 9.2% |
| COC(=O)[C@H](C)NP(=O)(OCCOCn1cnc2c(=O)[nH]c(N)nc21)Oc1cccc2ccccc12 (stereo partly shown) [Cf2649] | 4.9 ± 6.1 µM | 5.2 ± 2.4 µM | > 32 | 4.7 ± 2.1 µM | 10 ± 12 µM | 53 ± 4.4 µM | 11 ± 3.1 µM | 19 ± 3.2 µM | 57 ± 45 µM | > 150 µM | 6.8 ± 3.9 µM |  | 16 ± 11 µM | > 150 µM | suppression of HIV replication in tonsillar tissue ([22]; 1 μM): completely suppresses HIV replication; inhibition of HIV-1 replication, treatment started 2 days post-infection ([22]; tonsillar tissue, 1μM, n=3): 94.4 ± 5.5%; inhibition of HIV-1 replication, treatment started 4 days post-infection ([22]; tonsillar tissue, 1μM, n=3): 90.2 ± 9.8%; inhibition of HIV-1 replication, treatment started 6 days post-infection ([22]; tonsillar tissue, 1μM, n=3): 54.1 ± 13.5%; inhibition of HIV-1 replication, treatment started simultaneously with infection ([22]; tonsillar tissue, 1μM, n=3): 96.9 ± 3%; CC50 [8]: 352 µM; fraction of CD8- T cells HIV-infected (p24+) [23]: 3.16 ± 1.63%; suppression of HIV-1BAL replication in cervicovaginal tissue ([21]; 1 μM for 12 days, relative to donor-matched infected tissues, n=4): 75.8 ± 10.4% |
| CCOC(=O)[C@H](C)NP(=O)(OCCOCn1cnc2c(=O)[nH]c(N)nc21)Oc1cccc2ccccc12 (stereo partly shown) [Cf2676] |  |  | > 88 | 1.7 ± 0.8 µM |  |  |  | 12 ± 5.3 µM | 32 ± 7.8 µM | > 150 µM |  | 12 ± 9.8 µM |  | > 150 µM |  |
| CC(C)OC(=O)[C@H](C)NP(=O)(OCCOCn1cnc2c(=O)[nH]c(N)nc21)Oc1cccc2ccccc12 (stereo partly shown) [Cf2681] |  |  | > 28 | 5.4 µM |  |  |  | 73 µM | 36 ± 15 µM | > 150 µM |  | 6.2 ± 5.4 µM |  | > 150 µM | effect on numbers of CD4+ T cells and subsets in treated tissues [25]: did not affect the numbers of these cells |
